# What was measured:
# [1] = molecular target: T1, Cyclin-dependent kinase 4/cyclin D1 (Homo sapiens, UniProt P11802); assay: Inhibitory activity against Cyclin D1-cyclin-dependent kinase 4 in enzymatic assay by measuring phosphorylation of RbING; type: protein-complex assay
# [2] = tested on: HCT-116; assay: In vitro antiproliferative activity against human carcinoma cell line HCT116 (colon); type: functional, cell-based
# [3] = molecular target: Cyclin-dependent kinase 2/cyclin E (Homo sapiens, UniProt P24941); assay: Inhibitory activity against Cyclin E-cyclin-dependent kinase 2 in enzymatic assay by measuring phosphorylation of RbING; type: protein-complex assay
# [4] = molecular target: T1, Cyclin-dependent kinase 4/cyclin D1; assay: Inhibitory activity against Cyclin D1-cyclin-dependent kinase 4 in enzymatic assay by measuring phosphorylation of Rb21; type: protein-complex assay
# [5] = tested on: NCI-H460; assay: In vitro antiproliferative activity against human carcinoma cell line H460 (lung); type: functional, cell-based
# [6] = molecular target: CaM kinase II (Homo sapiens, UniProt Q13557+Q13555+Q13554+Q9UQM7); assay: Inhibitory activity against Calcium/calmodulin-dependent protein kinase type II; type: protein assay
# [7] = molecular target: cAMP-dependent protein kinase (PKA) (Homo sapiens, UniProt P22694+P17612+P22612); assay: Inhibitory activity against Protein kinase A (Histone); type: protein assay
# T1 sequence (P11802 whole entry): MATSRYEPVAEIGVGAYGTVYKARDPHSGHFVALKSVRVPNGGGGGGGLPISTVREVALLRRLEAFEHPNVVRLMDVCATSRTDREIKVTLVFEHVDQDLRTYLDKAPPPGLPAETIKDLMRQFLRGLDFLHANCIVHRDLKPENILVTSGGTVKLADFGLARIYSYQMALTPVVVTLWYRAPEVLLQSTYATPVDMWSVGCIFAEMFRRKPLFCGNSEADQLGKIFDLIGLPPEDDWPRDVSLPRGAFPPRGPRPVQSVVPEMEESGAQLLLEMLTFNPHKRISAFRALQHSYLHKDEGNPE
# T1 sequence (P24385 whole entry, further chain): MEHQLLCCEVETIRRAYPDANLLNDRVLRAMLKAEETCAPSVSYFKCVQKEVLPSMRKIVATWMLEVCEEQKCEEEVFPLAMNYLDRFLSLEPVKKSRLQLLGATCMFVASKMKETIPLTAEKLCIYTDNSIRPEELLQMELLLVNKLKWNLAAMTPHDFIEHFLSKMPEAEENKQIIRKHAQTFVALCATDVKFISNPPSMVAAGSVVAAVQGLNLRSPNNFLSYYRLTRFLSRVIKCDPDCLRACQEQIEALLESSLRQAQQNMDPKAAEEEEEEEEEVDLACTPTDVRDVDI
SMILES,IC50 [1] [nM],IC50 [2] [nM],IC50 [3] [nM],IC50 [4] [nM],IC50 [5] [nM],IC50 [6] [nM],IC50 [7] [nM]
Cn1ccc2ccc3c4[nH]c5c(CCCO)cccc5c4c4c(c3c21)C(=O)NC4=O,168,3020,558,40,2350,,> 20000
Cn1ccc2ccc3c4[nH]c5cc(OCc6ccccc6)ccc5c4c4c(c3c21)C(=O)NC4=O,123,6520,328,25,> 10000,,3290
COc1ccc2[nH]c3c4ccc5ccn(C)c5c4c4c(c3c2c1)C(=O)NC4=O,519,> 10000,> 2000,680,> 10000,,> 20000
COc1cccc2[nH]c3c4ccc5ccn(C)c5c4c4c(c3c12)C(=O)NC4=O,> 2000,> 10000,,,> 10000,,
COc1ccc2c3c4c(c5c(ccc6ccn(C)c65)c3n(CCN3CCCCC3)c2c1)C(=O)NC4=O,135,3740,928,33,2470,> 20000,> 20000
Cn1ccc2ccc3c4[nH]c5cccc(F)c5c4c4c(c3c21)C(=O)NC4=O,71,> 2000,> 2000,81,> 10000,,> 20000
O=C1NC(=O)c2c1c1c3ccccc3[nH]c1c1[nH]c3ccccc3c21 [STAUROSPORINE AGLYCON],140,850,897,,590,,
O=C1NC(=O)c2c1c1c(ccc3cc[nH]c31)c1c2c2ccccc2n1CCCO,66,750,8,12,1070,,> 20000
Cn1ccc2ccc3c4[nH]c5cccc(Br)c5c4c4c(c3c21)C(=O)NC4=O,171,4710,,136,3520,,> 20000
Cn1ccc2ccc3c4[nH]c5ccc(C(F)(F)F)cc5c4c4c(c3c21)C(=O)NC4=O,> 2000,7040,,,7850,,
Cc1cc2ccn(C)c2c2c3c(c4c5ccccc5n(CCCO)c4c12)C(=O)NC3=O,673,3850,,,4750,,
COc1ccc2c(c1)[nH]c1c3ccc4cc[nH]c4c3c3c(c21)C(=O)NC3=O,67,2160,125,36,1920,,11400
Cn1ccc2cc(F)c3c(c4c(c5c6ccccc6n(CCCO)c53)C(=O)NC4=O)c21,346,2390,,448,2480,,
Cc1cc2ccn(C)c2c2c3c(c4c5ccccc5n(C)c4c12)C(=O)NC3=O,92,4700,267,45,> 10000,,3900
Cc1cc2ccn(C)c2c2c3c(c4c5ccc(C(F)(F)F)cc5[nH]c4c12)C(=O)NC3=O,92,8780,> 2000,25,2420,,> 20000
Cn1ccc2ccc3c(c4c(c5c6ccccc6n(CCCO)c35)C(=O)NC4=O)c21,96,1360,67,42,1130,,> 2000
COc1cccc2c1[nH]c1c3ccc4ccn(C)c4c3c3c(c21)C(=O)NC3=O,62,1000,> 2000,40,2710,,> 20000
Cn1ccc2ccc3c4[nH]c5cc(C(F)(F)F)ccc5c4c4c(c3c21)C(=O)NC4=O,76,> 10000,225,9,3510,,> 20000
CCc1ccc2c(c1)[nH]c1c3ccc4ccn(C)c4c3c3c(c21)C(=O)NC3=O,101,3510,,22,7490,,> 20000
Cn1ccc2ccc3c4[nH]c5ccc(Br)cc5c4c4c(c3c21)C(=O)NC4=O,> 2000,,,,,,
Cn1ccc2ccc3c4[nH]c5c(Br)cccc5c4c4c(c3c21)C(=O)NC4=O,93,17100,,,13800,,
Cn1ccc2ccc3c4[nH]c5ccc(F)cc5c4c4c(c3c21)C(=O)NC4=O,84,> 10000,> 200,39,> 10000,,> 20000
O=C1NC(=O)c2c1c1c(ccc3cc[nH]c31)c1[nH]c3cc(OCc4ccccc4)ccc3c21,187,> 10000,,378,> 10000,,
CCn1ccc2ccc3c(c4c(c5c6ccccc6n(CCCO)c35)C(=O)NC4=O)c21,134,1200,400,90,1770,,5310
Cn1ccc2ccc3c4[nH]c5cccc(CO)c5c4c4c(c3c21)C(=O)NC4=O,155,> 10000,> 2000,216,> 10000,,> 20000
Cc1ccc2[nH]c3c4ccc5ccn(C)c5c4c4c(c3c2c1)C(=O)NC4=O,393,2870,1070,407,3350,,4060
Cn1ccc2ccc3c4[nH]c5cc(C#N)ccc5c4c4c(c3c21)C(=O)NC4=O,29,> 10000,10,11,> 10000,,> 20000
Cc1cc2ccn(C)c2c2c3c(c4c5ccccc5n(CCCCO)c4c12)C(=O)NC3=O,> 2000,> 10000,,,> 10000,,11700
Cn1ccc2cc(F)c3c4[nH]c5ccccc5c4c4c(c3c21)C(=O)NC4=O,67,3490,86,16,2900,,> 20000

# The next lines start with the values.
IC50 [1] [nM],IC50 [2] [nM],IC50 [3] [nM],IC50 [4] [nM],IC50 [5] [nM],IC50 [6] [nM],IC50 [7] [nM],SMILES
45,200,978,8,140,46,2990,Cn1ccc2ccc3c4[nH]c5c(CCN6CCC(O)CC6)cccc5c4c4c(c3c21)C(=O)NC4=O
47,> 10000,972,13,> 10000,81,> 20000,COC(=O)C1CCN(CCc2cccc3c2[nH]c2c4ccc5ccn(C)c5c4c4c(c32)C(=O)NC4=O)CC1
48,1260,2100,4,1130,3130,2810,COc1ccc2c3c4c(c5c(ccc6ccn(C)c65)c3n(CCCN3CCC(O)CC3)c2c1)C(=O)NC4=O
59,4520,,19,> 10000,,> 2000,CCn1ccc2ccc3c4[nH]c5ccccc5c4c4c(c3c21)C(=O)NC4=O
47,4070,101,24,1320,,1620,COc1ccc2c3c4c(c5c(ccc6ccn(C)c65)c3n(CCO)c2c1)C(=O)NC4=O
38,> 10000,9,11,> 10000,,> 20000,Cn1ccc2ccc3c4[nH]c5cc(F)ccc5c4c4c(c3c21)C(=O)NC4=O
37,170,6,17,230,,949,O=C1NC(=O)c2c1c1c(ccc3cc[nH]c31)c1[nH]c3cc(O)ccc3c21
42,1430,57,7,1300,,> 20000,COc1ccc2c(c1)[nH]c1c2c2c(c3c1c(C)cc1ccn(C)c13)C(=O)NC2=O
38,1080,75,< 13,720,,> 20000,Cn1ccc2ccc3c4[nH]c5cc(Br)ccc5c4c4c(c3c21)C(=O)NC4=O
44,2350,324,10,3200,,> 20000,CCOc1ccc2c(c1)[nH]c1c3ccc4ccn(C)c4c3c3c(c21)C(=O)NC3=O
48,3840,320,18,3410,,> 20000,Cc1ccc2c(c1)[nH]c1c3ccc4ccn(C)c4c3c3c(c21)C(=O)NC3=O
50,580,23,6,1020,,> 20000,Cc1cc2ccn(C)c2c2c3c(c4c5ccc(F)cc5[nH]c4c12)C(=O)NC3=O
52,1380,1670,,1480,382,16600,CN1CCN(CCCc2cccc3c2[nH]c2c4ccc5ccn(C)c5c4c4c(c32)C(=O)NC4=O)CC1
28,1980,70,2,2260,,> 20000,Cc1cc2ccn(C)c2c2c3c(c4c5ccccc5[nH]c4c12)C(=O)NC3=O
36,1440,64,22,1430,,> 2000,O=C1NC(=O)c2c1c1c(ccc3cc[nH]c31)c1[nH]c3ccccc3c21

# Source: ChEMBL document CHEMBL1136094, “Novel, potent and selective cyclin D1/CDK4 inhibitors: indolo[6,7-a]pyrrolo[3,4-c]carbazoles” (Bioorg Med Chem Lett, 2003)
